# Source: US20220288045A1, “Stable Pharmaceutical Composition Comprising Esomeprazole And Sodium Bicarbonate” (Chong Kun Dang Pharmaceutical Corp., priority 2019, published 2022)
# Like-named read-outs stand apart in the source and are kept apart here.
# Key:
# [1] = Stability test of esomeprazole and omeprazole according to pH (HPLC content in buffer solution); assay type: physicochemical; details: in % (unit assumed)
# Procedure: After adding each 2 mL of 20 mg/mL strength of esomeprazole and omeprazole solutions to 100 mL of buffer solution, the content according to pH was analyzed, and the analysis method is as follows. <Analysis Method> A) Detector: Ultraviolet visible light absorption spectrometer (measurement wavelength: 280 nm) B) Column: Inertsil C8-3 (4.6×150 mm, 5 μm) or equivalent column C) Injection amount: 20 μl D) Flow rate: 1.5 mL/min E) Column temperature: constant temperature around 40° C. F) Sample temperature: constant temperature around 10° C.
# [2] = aqueous solutions with 3 or less of a pH value; cited from earlier work
# [3] = for pH: 200 mL artificial gastric juice + 200 mL purified water, 37° C.
# From the text: To set the content of sodium bicarbonate, the drug release conditions and gastric juice conditions were set as follows.
compound,measurement,setting,value
"COc1ccc2nc([S@@+]([O-])Cc3ncc(C)c(OC)c3C)[nH]c2c1 [S-omeprazole, (S)-5-methoxy-24(4-methoxy-3,5-dimethyl-2-pyridinyl)-methyllsulfinyl-1H-benzimidazole]",content according to pH,"[1]; pH4.0, 5 min",64.1
same,content according to pH,"[1]; pH4.0, 10 min",31.0
same,content according to pH,"[1]; pH4.0, 15 min",15.9
same,content according to pH,"[1]; pH4.0, 30 min",6.9
same,content according to pH,"[1]; pH4.0, 45 min",1.7
same,content according to pH,"[1]; pH4.0, 60 min",0.9
same,content according to pH,"[1]; pH4.0, 120 min",0.1
same,content according to pH,"[1]; pH6.0, 5 min",74.4
same,content according to pH,"[1]; pH6.0, 10 min",72.8
same,content according to pH,"[1]; pH6.0, 15 min",71.0
same,content according to pH,"[1]; pH6.0, 30 min",68.9
same,content according to pH,"[1]; pH6.0, 45 min",66.3
same,content according to pH,"[1]; pH6.0, 60 min",63.6
same,content according to pH,"[1]; pH6.0, 120 min",54.9
same,content according to pH,"[1]; pH6.8, 5 min",95.6
same,content according to pH,"[1]; pH6.8, 10 min",90.8
same,content according to pH,"[1]; pH6.8, 15 min",90.5
same,content according to pH,"[1]; pH6.8, 30 min",89.7
same,content according to pH,"[1]; pH6.8, 45 min",88.9
same,content according to pH,"[1]; pH6.8, 60 min",88.3
same,content according to pH,"[1]; pH6.8, 120 min",86.2
same,content according to pH,"[1]; pH7.0, 5 min",99.6
same,content according to pH,"[1]; pH7.0, 10 min",99.0
same,content according to pH,"[1]; pH7.0, 15 min",99.3
same,content according to pH,"[1]; pH7.0, 30 min",98.9
same,content according to pH,"[1]; pH7.0, 45 min",98.7
same,content according to pH,"[1]; pH7.0, 60 min",98.1
same,content according to pH,"[1]; pH7.0, 120 min",96.8
same,content according to pH,"[1]; pH7.3, 5 min",100.1
same,content according to pH,"[1]; pH7.3, 10 min",100.1
same,content according to pH,"[1]; pH7.3, 15 min",100.0
same,content according to pH,"[1]; pH7.3, 30 min",100.0
same,content according to pH,"[1]; pH7.3, 45 min",100.0
same,content according to pH,"[1]; pH7.3, 60 min",100.0
same,content according to pH,"[1]; pH7.3, 120 min",99.90
same,content according to pH,"[1]; pH7.5, 5 min",99.4
same,content according to pH,"[1]; pH7.5, 10 min",99.3
same,content according to pH,"[1]; pH7.5, 15 min",99.2
same,content according to pH,"[1]; pH7.5, 30 min",99.1
same,content according to pH,"[1]; pH7.5, 45 min",99.3
same,content according to pH,"[1]; pH7.5, 60 min",99.1
same,content according to pH,"[1]; pH7.5, 120 min",98.2
same,content according to pH,"[1]; pH8.0, 15 min",101.1
same,content according to pH,"[1]; pH8.0, 30 min",100.9
same,content according to pH,"[1]; pH8.0, 45 min",100.7
same,content according to pH,"[1]; pH8.0, 60 min",100.7
same,content according to pH,"[1]; pH8.0, 120 min",100.0
same,decomposition half-life,[2],less than 10 minutes
O=C([O-])O.[Na+] [Sodium bicarbonate],amount of sodium bicarbonate that can represent neutral pH by neutralizing 200 mL of artificial gastric juice,[3]; 200 mL artificial gastric juice,at least 600 mg
same,pH,[3]; Sodium bicarbonate 500 mg,5.77
same,pH,[3]; Sodium bicarbonate 600 mg,6.51
same,pH,[3]; Sodium bicarbonate 700 mg,7.30
same,pH,[3]; Sodium bicarbonate 800 mg,7.30
same,pH,[3]; Sodium bicarbonate 900 mg,7.31
same,pH,"[3]; Sodium bicarbonate 1,000 mg",7.37
same,pH,"[3]; Sodium bicarbonate 1,100 mg",7.38
same,pH,"[3]; Sodium bicarbonate 1,200 mg",7.38
same,pH,"[3]; Sodium bicarbonate 1,300 mg",7.40
